Data taken from ChEMBL document CHEMBL3627662, “Ligand-Orientation Based Fragment Selection in STD NMR Screening” (J Med Chem, 2015).
Blank lines part the entries; values can stand above or below the molecule they belong to. Calls of active or inactive are those of the source. No cut-off for these calls is given here.

Legend:
[1] = molecular target: T1, Peroxiredoxin-5, mitochondrial (Homo sapiens) (UniProt P30044); test: Binding affinity to human PRDX5 expressed in Escherichia coli by STD NMR spectrometric analysis
T1 sequence (whole entry): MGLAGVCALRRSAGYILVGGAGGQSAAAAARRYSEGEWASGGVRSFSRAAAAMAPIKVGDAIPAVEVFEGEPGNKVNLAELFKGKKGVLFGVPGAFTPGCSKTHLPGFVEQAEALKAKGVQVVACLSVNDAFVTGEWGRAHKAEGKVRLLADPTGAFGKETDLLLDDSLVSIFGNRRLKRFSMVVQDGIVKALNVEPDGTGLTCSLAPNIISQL

[2] = molecular target: T2, Glycogen phosphorylase, muscle form (Oryctolagus cuniculus) (UniProt P00489); test: Binding affinity to rabbit muscle glycogen phosphorylase measured for 0.5 to 4 secs by STD NMR spectrometric analysis
T2 sequence (whole entry): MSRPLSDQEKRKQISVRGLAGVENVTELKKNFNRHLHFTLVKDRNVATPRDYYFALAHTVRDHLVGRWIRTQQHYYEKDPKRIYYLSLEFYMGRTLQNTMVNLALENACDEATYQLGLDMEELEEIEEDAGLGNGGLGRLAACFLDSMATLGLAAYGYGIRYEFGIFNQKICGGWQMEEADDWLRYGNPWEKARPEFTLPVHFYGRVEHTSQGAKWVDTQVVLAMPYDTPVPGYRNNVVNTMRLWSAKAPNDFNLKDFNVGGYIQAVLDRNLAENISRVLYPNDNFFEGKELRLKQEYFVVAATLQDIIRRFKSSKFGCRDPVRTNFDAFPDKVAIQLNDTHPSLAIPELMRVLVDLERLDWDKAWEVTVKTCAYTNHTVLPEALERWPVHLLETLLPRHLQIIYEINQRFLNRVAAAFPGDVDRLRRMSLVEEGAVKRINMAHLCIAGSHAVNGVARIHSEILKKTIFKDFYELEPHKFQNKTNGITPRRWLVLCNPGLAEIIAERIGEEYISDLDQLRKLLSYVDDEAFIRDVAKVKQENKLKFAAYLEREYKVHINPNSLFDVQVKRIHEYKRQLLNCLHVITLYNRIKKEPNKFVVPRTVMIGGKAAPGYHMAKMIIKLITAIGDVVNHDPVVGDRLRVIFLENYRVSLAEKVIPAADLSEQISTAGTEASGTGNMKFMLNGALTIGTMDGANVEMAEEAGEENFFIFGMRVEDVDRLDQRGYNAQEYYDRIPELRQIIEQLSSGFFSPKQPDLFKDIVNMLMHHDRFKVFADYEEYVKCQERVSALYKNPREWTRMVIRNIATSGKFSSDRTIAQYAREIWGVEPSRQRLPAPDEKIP

[3] = molecular target: T2, Glycogen phosphorylase, muscle form (Oryctolagus cuniculus); test: Binding affinity to rabbit muscle glycogen phosphorylase by STD NMR spectrometric analysis
[4] = molecular target: T1, Peroxiredoxin-5, mitochondrial (Homo sapiens); test: Binding affinity to human PRDX5 expressed in Escherichia coli at ligand/protein ratio 50 and 240 measured over 2 secs by STD NMR spectrometric analysis
[5] = molecular target: T1, Peroxiredoxin-5, mitochondrial (Homo sapiens); test: Binding affinity to human PRDX5 expressed in Escherichia coli at ligand/protein ratio 120 measured over 0.5 to 4 secs by STD NMR spectrometric analysis
[6] = molecular target: Mitogen-activated protein kinase 3 (Homo sapiens) (UniProt P27361); test: Binding affinity to ERK1 (unknown origin) expressed in Escherichia coli by STD NMR spectrometric analysis
Sequence of Mitogen-activated protein kinase 3 (Homo sapiens) (P27361 whole entry): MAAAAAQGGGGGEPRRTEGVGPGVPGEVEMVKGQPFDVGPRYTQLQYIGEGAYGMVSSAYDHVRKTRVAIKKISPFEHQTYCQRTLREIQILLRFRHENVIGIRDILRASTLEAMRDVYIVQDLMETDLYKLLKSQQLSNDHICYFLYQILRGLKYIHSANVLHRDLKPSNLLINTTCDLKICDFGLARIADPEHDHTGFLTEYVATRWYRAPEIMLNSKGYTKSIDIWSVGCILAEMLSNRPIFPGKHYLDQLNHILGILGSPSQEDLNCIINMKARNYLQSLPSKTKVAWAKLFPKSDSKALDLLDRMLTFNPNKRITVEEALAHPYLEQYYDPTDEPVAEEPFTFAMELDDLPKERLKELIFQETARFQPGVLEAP

Activity [1]: Active
Structure (SMILES): Oc1ccccc1Cc1ccccc1O

Activity [2]: Active
Structure (SMILES): c1ccc2[nH]ccc2c1

Activity [3]: Active
Structure (SMILES): O=C(O)c1cnc2ccccc2c1

Activity [4]: Active | Activity [5]: Active
Structure (SMILES): Cc1ccc(O)c(O)c1

Activity [3]: Active
Structure (SMILES): Nc1nc2ncnc-2c[nH]1

Structure (SMILES): Oc1ccccc1-c1ccccc1
Activity [3]: Active

Activity [6]: Active | Activity [3]: Active
Structure (SMILES): c1cnc2[nH]ccc2c1
